Results reported in article PMC6017707, “Structure Related Inhibition of Enzyme Systems in Cholinesterases and BACE1 In Vitro by Naturally Occurring Naphthopyrone and Its Glycosides Isolated from Cassia obtusifolia” (Molecules : A Journal of Synthetic Chemistry and Natural …, 2017).
Several values for one entry are separate records, joined by “and”; a condition that tells them apart may be missing. Identical values can stand only once. Entries after “also recorded” stand apart in the source; their conditions may differ. Like-named read-outs stand apart in the source and are kept apart here.

Legend:
[1] = molecular target: T1, Electric eel acetylcholinesterase (Electrophorus electricus, UniProt O42275); assay: In vitro AChE inhibition assay (Ellman spectrophotometric method); assay type: biochemical
T1 construct: purchased Sigma Co. (St. Louis, MO, USA)
T1 sequence (O42275 24-633): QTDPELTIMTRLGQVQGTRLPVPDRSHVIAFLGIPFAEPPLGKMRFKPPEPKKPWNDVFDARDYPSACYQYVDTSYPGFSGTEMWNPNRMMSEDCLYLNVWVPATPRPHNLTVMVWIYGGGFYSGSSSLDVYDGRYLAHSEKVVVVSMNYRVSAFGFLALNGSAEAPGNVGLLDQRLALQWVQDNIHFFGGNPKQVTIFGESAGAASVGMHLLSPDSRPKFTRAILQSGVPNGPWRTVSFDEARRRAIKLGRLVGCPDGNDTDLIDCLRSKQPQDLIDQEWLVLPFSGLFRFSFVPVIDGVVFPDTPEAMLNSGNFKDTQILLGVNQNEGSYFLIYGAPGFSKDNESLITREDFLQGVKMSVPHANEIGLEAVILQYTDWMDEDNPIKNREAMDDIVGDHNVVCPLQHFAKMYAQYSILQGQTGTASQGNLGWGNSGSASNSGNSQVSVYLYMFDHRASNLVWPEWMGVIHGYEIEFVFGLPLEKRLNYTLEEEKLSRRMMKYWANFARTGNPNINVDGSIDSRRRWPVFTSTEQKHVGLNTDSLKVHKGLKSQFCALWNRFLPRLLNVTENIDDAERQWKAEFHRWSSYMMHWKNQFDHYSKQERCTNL
Procedure: (§1) The inhibitory activities of isolated compounds against ChEs were measured using the spectrophotometric method, as described previously. Briefly, AChI and BCh were used as the substrates to assay the inhibition of AChE and BChE, respectively. Each reaction mixture contained 140 µL of sodium phosphate buffer (pH 8.0); 20 µL of compounds (final conc., 100 µM); and, 20 µL of either AChE or BChE solution, which was mixed and incubated for 15 min at room temperature. […] Reactions were initiated by the addition of 10 µL of DTNB and 10 µL of either AChI or BCh. […] All of the reactions were performed in triplicate and recorded in 96-well microplate format using a microplate spectrophotometer (Molecular Devices, Sunnyvale, CA, USA). Percent inhibition was calculated as (1-S/E) × 100, where E and S were the respective enzyme activities without and with the tested sample, respectively.

[2] = molecular target: T2, horse serum butyrylcholinesterase (Equus caballus, UniProt P81908); assay: In vitro BChE inhibition assay (Ellman spectrophotometric method); assay type: biochemical
T2 construct: horse-serum BChE (EC 3.1.1.8); purchased Sigma Co. (St. Louis, MO, USA); host or cells: horse serum
T2 sequence (P81908 whole entry): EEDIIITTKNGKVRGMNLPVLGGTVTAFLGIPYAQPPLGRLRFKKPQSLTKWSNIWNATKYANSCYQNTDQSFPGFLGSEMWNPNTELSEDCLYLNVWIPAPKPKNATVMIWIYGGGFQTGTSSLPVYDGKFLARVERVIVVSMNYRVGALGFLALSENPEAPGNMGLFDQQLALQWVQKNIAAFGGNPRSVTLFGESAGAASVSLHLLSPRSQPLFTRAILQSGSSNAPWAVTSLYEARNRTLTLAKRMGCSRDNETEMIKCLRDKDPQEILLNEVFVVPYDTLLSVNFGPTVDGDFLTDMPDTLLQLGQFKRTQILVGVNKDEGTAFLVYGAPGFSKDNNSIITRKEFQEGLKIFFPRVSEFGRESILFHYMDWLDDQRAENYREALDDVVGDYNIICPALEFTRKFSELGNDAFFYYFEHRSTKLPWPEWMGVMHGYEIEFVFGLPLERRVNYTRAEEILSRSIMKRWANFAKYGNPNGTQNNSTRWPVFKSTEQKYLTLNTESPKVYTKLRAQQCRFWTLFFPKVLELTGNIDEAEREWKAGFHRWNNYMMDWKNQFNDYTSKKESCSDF
Procedure: as §1

[3] = molecular target: T3, human recombinant BACE1 (Homo sapiens, UniProt P56817); assay: In vitro BACE1 FRET enzyme assay; assay type: biochemical; settings: for IC50: log dose inhibition curve; for BACE1 inhibitory activity (in words): at concentrations up to 200 µM
T3 construct: purchased Pan Vera Co. (Madison, WI, USA)
T3 sequence (P56817 46-501): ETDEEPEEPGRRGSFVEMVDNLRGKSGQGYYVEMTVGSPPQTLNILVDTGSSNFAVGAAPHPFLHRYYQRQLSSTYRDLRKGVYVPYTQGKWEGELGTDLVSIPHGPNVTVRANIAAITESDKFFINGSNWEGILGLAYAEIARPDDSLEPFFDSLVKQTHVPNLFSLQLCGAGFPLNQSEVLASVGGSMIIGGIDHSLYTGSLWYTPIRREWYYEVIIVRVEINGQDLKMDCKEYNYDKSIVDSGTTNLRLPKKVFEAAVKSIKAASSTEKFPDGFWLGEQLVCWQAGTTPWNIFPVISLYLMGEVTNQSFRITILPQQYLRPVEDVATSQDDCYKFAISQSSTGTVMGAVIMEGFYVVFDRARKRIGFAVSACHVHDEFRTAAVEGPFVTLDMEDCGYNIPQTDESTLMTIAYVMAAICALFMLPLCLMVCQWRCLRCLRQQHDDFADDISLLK
Procedure: Assays were performed according to the supplied manual (Pan Vera Co.) with selected modifications, as described previously. […] Fluorescence was measured with a microplate spectrophotometer (Molecular Devices). The percent of inhibition (%) was obtained by the following equation: % Inhibition = [1 − (S60 − S0)/(C60 − C0)] × 100, where C60 was the fluorescence of the control (enzyme, buffer, and substrate) after incubation for 60 min, C0 was the initial fluorescence of the control, S60 was the fluorescence of the tested samples (enzyme, sample solution, and substrate) after incubation for 60 min, and S0 was the initial fluorescence of the tested samples. To account for the quenching effect of samples, the sample solution was added to a separate reaction mixture C, and any reduction in fluorescence by the sample was investigated.

[4] = molecular target: T3, human recombinant BACE1; settings: cited from earlier work; for BACE1 inhibitory activity (in words): compounds isolated from n-BuOH fraction in earlier study
[5] = molecular target: T3, human recombinant BACE1; assay: Enzyme kinetic analysis with BACE1 (Dixon and Lineweaver-Burk plots); assay type: biochemical
Procedure: Assays were performed according to the supplied manual (Pan Vera Co.) with selected modifications, as described previously. Briefly, mixtures of 10 µL of assay buffer (50 mM sodium acetate, pH 4.5), 10 µL of BACE1 (1.0 U/mL), 10 µL of the substrate (750 nM Rh-[…]-Quencher in 50 mM, ammonium bicarbonate), and 10 µL of compounds (final conc., 100 µM) dissolved in 10% DMSO were incubated for 60 min at 25 °C in the dark. The proteolysis of two fluorophores (Rh-[…]-Quencher) by BACE1 was monitored by the formation of fluorescent donor Rh-EVNL (530–545 nm, excitation; 570–590 nm, emission), the abundance of which was determined by measuring increase in fluorescence excited at 545 nm and recorded at 585 nm. Fluorescence was measured with a microplate spectrophotometer (Molecular Devices). The percent of inhibition (%) was obtained by the following equation: % Inhibition = [1 − (S60 − S0)/(C60 − C0)] × 100, where C60 was the fluorescence of the control (enzyme, buffer, and substrate) after incubation for 60 min, C0 was the initial fluorescence of the control, S60 was the fluorescence of the tested samples (enzyme, sample solution, and substrate) after incubation for 60 min, and S0 was the initial fluorescence of the tested samples. […]

[6] = molecular target: T1, Electric eel acetylcholinesterase; assay: Enzyme kinetic analysis with AChE (Dixon and Lineweaver-Burk plots); assay type: biochemical
Procedure: Inhibition constants (Ki) were determined by the interpretation of Dixon plots, where the x-axis intercept was taken as Ki.

[7] = parameters: method as in PMID 10319159; settings: cited from earlier work
[8] = mean ± S.E.M of triplicate experiments, log dose inhibition curve, read-out: AChE IC50
[9] = mean ± S.E.M of triplicate experiments, log dose inhibition curve, read-out: BChE IC50
[10] = mean ± S.E.M of triplicate experiments, read-out: BACE1 IC50

Q: What does the source list for `COc1cc(OC2OC(CO)C(O)C(O)C2O)c2c(O)c3c(=O)cc(C)oc3cc2c1` [Compound 2, rubrofusarin 6-O-β-D-glucopyranoside]?
A: IC50 [1, 8]: 148 ± 2.09 µM; IC50 [2, 9]: > 200 µM; IC50 [3, 10]: 148 µM and 191 µM

Q: Which IC50 [1, 8] does the source give for `COc1cc(O[C@@H]2O[C@H](CO[C@@H]3O[C@H](CO)[C@@H](O)[C@H](O)[C@H]3O)[C@@H](O)[C@H](O)[C@H]2O)c2c(c1)cc(O)c1c(=O)cc(C)oc12` [Compound 5, isorubrofusarin 10-O-β-D-gentiobioside] here?
A: 83.5 ± 1.56 µM

Q: And the IC50 [2, 9]?
A: > 200 µM

Q: What about the “BACE1 inhibitory activity (in words)” value [3] of the same molecule?
A: no significant inhibitory activity

Q: And the IC50 [3, 10]?
A: > 200 µM

Q: With toralactone gentiobioside as the molecule, how does the “BACE1 inhibitory activity (in words)” value [4] read?
A: moderate activity

Q: With `COc1cc(O)c2c(O)c3c(=O)cc(C)oc3cc2c1` [Compound 1, rubrofusarin] as the molecule, how does the IC50 [1] read?
A: 124 ± 1.39 µM

Q: What about the IC50 [2] of the same molecule?
A: > 200 µM

Q: And the IC50 ([3]; BACE1 IC50, mean ± S.E.M of triplicate experiments)?
A: 90 ± 2.38 µM

Q: Which IC50 [1, 8] does the source give for `Cc1cc(=O)c2c(O)c3c(OC4OC(CO)C(O)C(O)C4O)cc(O)cc3cc2o1` [Compound 4, nor-rubrofusarin 6-O-β-D-glucoside] here?
A: 86 ± 2.01 µM

Q: And the IC50 [2, 9]?
A: > 200 µM

Q: What about the IC50 [3, 10] of the same molecule?
A: 86 µM and 14.4 µM

Q: And the Ki ([5]; Dixon plot, read-out: Ki Value (BACE1 inhibition constant))?
A: 10 µM

Q: What about the “Inhibition Type (BACE1)” value ([5]; Lineweaver-Burk plot) of the same molecule?
A: mixed type of inhibition; also recorded: Mixed type ^e

Q: What about the “BACE1 inhibitory activity (in words)” value [4] of the same molecule?
A: most potent BACE1 inhibitory activity

Q: What does the source list for `COc1cc(OC)c2c(=O)c(OC)c(-c3ccc(OC)c(OC)c3)oc2c1` [PMF, 3,5,7,3′,4′-pentamethoxyflavone, reference compound]?
A: IC50 ([4]; read-out: BACE1 IC50, literature value for PMF): 59.8 µM; BACE1 inhibitor type ([4]; reported for PMF): noncompetitive inhibitor

Q: Which results are given for `COc1cc(O[C@@H]2O[C@H](CO[C@@H]3O[C@H](CO)[C@@H](O)[C@H](O)[C@H]3O)[C@@H](O)[C@H](O)[C@H]2O)c2c(O)c3c(=O)cc(C)oc3cc2c1` [Compound 3, rubrofusarin 6-O-β-D-gentiobioside]?
A: AChE inhibition relative to 5, 6 and 4 [1]: five times; AChE inhibition relative to 1 ([1]; fold more effective than 1 (no sugar moiety)): eight times; AChE inhibition relative to 2 ([1]; fold more effective than 2 (one sugar moiety)): nine times; IC50 [1, 8]: 15.9 ± 0.32 µM; IC50 [2, 9]: 141.2 ± 1.23 µM; IC50 [3, 10]: 85.7 ± 3.98 µM; Ki ([6]; Dixon plot, read-out: Ki Value (AChE inhibition constant)): 12.8 µM; Inhibition Type (AChE) ([6]; Lineweaver-Burk plot): mixed type inhibition; also recorded: Mixed type ^c; Radical scavenging activity relative to 4 [7]: twice

Q: With `COc1ccc2cc3[n+](cc2c1OC)CCc1cc2c(cc1-3)OCO2` [Berberine, berberine, reference compound] as the molecule, how does the IC50 [1] read?
A: 0.68 ± 0.01 µM

Q: Which IC50 [1, 8] does the source give for `COc1cc(O[C@@H]2O[C@H](CO[C@@H]3O[C@H](CO)[C@@H](O)[C@H](O[C@@H]4O[C@H](CO)[C@@H](O)[C@H](O)[C@H]4O)[C@H]3O)[C@@H](O)[C@H](O)[C@H]2O)c2c(O)c3c(=O)cc(C)oc3cc2c1` [Compound 6, rubrofusarin 6-O-β-D-triglucoside] here?
A: 82.3 ± 1.63 µM

Q: And the IC50 [2, 9]?
A: > 200 µM

Q: What about the “BACE1 inhibitory activity (in words)” value [3] of the same molecule?
A: no significant inhibitory activity

Q: And the IC50 [3, 10]?
A: > 200 µM
